Reference: US20220183287A1, “METHODS FOR KILLING PESTS” (The United States of America, as represented by the …, priority 2020, published 2022)
Marks after values point to notes of the source that are not given here.

Tests used:
M. incognita eggs = test: Microwell assay: eggs immersed in compounds, hatch and activity of hatched J2; assay type: in vivo, Meloidogyne incognita; settings: 0.1%; for % Active Day 2 / % Active Day 5 / % Active Day 7: J2 hatched from immersed eggs; for Hatch Day 2 / Hatch Day 5 / Hatch Day 7: hatched J2 per well, about 35 eggs per well
Description: All chemicals were used without further purification.
These are reported as 0.1% herein.
The nematodes were then incubated at 26° C. […] Two trials were conducted for each assay.
(§1) The assumptions of the model were checked.

M. incognita = test: Greenhouse trial: root galls on cucumber in treated soil; assay type: in vivo, Meloidogyne incognita; settings: for reduction of galls per gram of root compared with the Tween control: 0.1%, Trials 1 & 2
Text: Two weeks after transplant, the plants were harvested.
as §1
The number of carbons is indicated in parentheses.

[1] = system: H. glycines second-stage juveniles; test: Microwell assay: previously hatched J2 immersed in compounds, activity and viability; settings: for viability reduction compared with the Tween control: following the water rinse (Day 3); for inactive J2: Day 1 and Day 2; for reduction in % viable J2 compared with the Tween control: Day 3 following water rinse
Description: The isolate of H. glycines race 3, originally isolated in Maryland, was maintained on soybean (Glycine max cv. ‘Essex’). As previously described (Wen, Y., et al. Plant Disease, 103: 2191-2198 (2019)), the roots were gently rubbed in water to dislodge cysts and mature females. The egg suspensions were then poured through nested sieves (#20 over /#60; pore sizes 850 μm and 250 μm diam., respectively) into a 454 g/liter sucrose solution. After 15 min, the cysts and females and cysts that floated to the top were collected, rinsed in water, and crushed with a rubber stopper on a #60 sieve (250-μm diam. pore size) that was partially submerged in distilled water. The egg suspension was washed through nested #230 over #500 sieves (pore sizes 63 μm and 25-μm diam., respectively). The eggs were collected in distilled water, and J2 hatched as described above.
Compounds for the studies were purchased from three different companies: methyl benzoate, CAS Number 93-58-3, ≥99% purity; Tween 20, CAS Number: 9005-64-5; Tween 80, CAS Number: 9005-65-6; ethyl benzoate, CAS Number: 93-89-0, natural, ≥99% purity, FCC, FG; vinyl benzoate, CAS Number: 769-78-8, ≥99% purity; n-propyl benzoate, CAS Number: 2315-68-6, 99% purity; n-butyl benzoate, CAS Number: 136-60-7, 99% purity; benzyl benzoate, CAS Number: 120-51-4, natural, ≥99% purity, FCC, FG; methyl 2-methylbenzoate, CAS Number: 89-71-4, 99% purity; methyl 2-chlorobenzoate, CAS Number: 610-96-8, ≥98% purity; methyl 2-methoxybenzoate, CAS Number: 606-45-1, 99% purity and methyl 2-nitrobenzoate, CAS Number: 606-27-9, 98% purity were purchased from Sigma-Aldrich (St. Louis, Mo.). Compounds, iso-butyl benzoate, CAS Number 120-50-3, >98% purity; n-pentyl benzoate, CAS Number: 2049-96-9, ≥98% purity; and n-hexyl benzoate, CAS Number: 6789-88-4, ≥98% purity were purchased from Alfa Aesar (Tewksbury, Mass.). The compounds methyl 3-methoxybenzoate (methyl m-anisate), CAS Number: 5368-81-0; 97% and methyl 3-methylbenzoate (methyl m-toluate), CAS Number: 99-36-5, 97% purity were purchased from TCI America (Portland, Oreg.). All chemicals were used without further purification. Deionized water (DI) containing 1% emulsifier (v/v), Tween 20 and Tween 80, at 1:1 ratio was used to make different VOCs (volatile organic compounds) water solutions and also used as blank control.
For tests with individual compounds, the concentration of each compound was 0.1% before placement into wells; the final concentration in the wells was 0.095% after addition to eggs or J2 suspended in water. These are reported as 0.1% herein. An exception was Trial 2, M. incognita J2 activity and viability (Table 2): the final concentration was 0.1% after placement in wells. Low concentrations were selected for assays of combined compounds to determine if the combinations would increase nematotoxicity.
Laboratory assays were conducted in 96-well polystyrene plates following general procedures described in Wen et al. (2019). Each well received approximately 35 J2 (for previously hatched J2 assays) or 35 eggs that each contained either a first-stage juvenile (J1) or a J2. The plates were covered with plastic adhesive sealing film (Excel Scientific, Inc., Victorville Calif.) and then with the plate lids. Parafilm (Bemis, Neenah, Wis.) was used to seal the plates. The nematodes were then incubated at 26° C. […] Following the counts on Day 2, the treatments were removed and the J2 rinsed twice with SDW and incubated in the second rinse. […] Two trials were conducted for each assay.
Statistical analyses: The data were analyzed as either a general linear model using JMP or a generalized linear model for the best distribution to fit the residual using Proc Glimmix (Sas Institute). The assumptions of the model were checked. If not met, then appropriate statistical techniques were used so that data could met the assumptions of the models. In Sas, mean comparisons were done with Sidak adjusted p-values to hold the experiment-wise error at 0.05.

M. incognita juveniles = settings: MB isolated from Buddleja crispa; laboratory assays; cited from earlier work
[2] = 0.1%, previously hatched J2 in aqueous solution
[3] = Heterodera glycines, 72 h, read-out: % Viable Day 3 rinsed

| Structure (SMILES) | % Active Day 2 (M. incognita eggs) | % Active Day 5 (M. incognita eggs) | % Active Day 7 (M. incognita eggs) | Hatch Day 2 (M. incognita eggs) | Hatch Day 5 (M. incognita eggs) | Hatch Day 7 (M. incognita eggs) | Galls per gram root Trials 1 & 2 (M. incognita; 0.05%, 5,000 eggs per pot) | Galls per gram root Trials 1 & 2 (M. incognita; 0.1%, 5,000 eggs per pot) | reduction of galls per gram of root compared with the Tween control (M. incognita) [%] | inactive J2 ([1]; 0.1%) [%] | reduction in % viable J2 compared with the Tween control ([1]; 0.1%) [%] | % Active Day 1 [1, 2] | % Active Day 2 [1, 2] | viability at 0.1 % [1, 3] [%] | also measured |
| --- | --- | --- | --- | --- | --- | --- | --- | --- | --- | --- | --- | --- | --- | --- | --- |
| C=COC(=O)c1ccccc1 [VB, Vinyl benzoate] | 0 ^c % | 0 ^e % | 0 ^c % | 2.7 ^cd | 2.9 ^cde | 2.8 ^de | 1.8 ^gh | 0.1 ^h | ~100 | 100 | 100 | 0 ^e % | 0 ^h % | 0 | % Active Day 1 ([1]; 0.008% final concentration): 42.8 ^bc %; % Active Day 2 ([1]; 0.008% final concentration): 34.7 ^b %; viability reduction compared with the Tween control ([1]; 0.008%): 30%; viability at 0.008 % [1, 3]: 45% |
| COC(=O)c1cccc(C)c1 [M3MB, Methyl 3-methylbenzoate] | 0 ^c % | 0 ^e % | 0 ^c % | 1.9 ^cd | 2.7 ^cde | 2.9 ^de | 11.2 ^bcdef | 6.8 ^defg | – | – | – | 10.1 ^d % | 7.6 ^g % | 8.5 | % Active Day 1 ([1]; 0.015% final concentration): 71.9 ^a %; viability at 0.015 % [1, 3]: 58.7% |
| COC(=O)c1ccccc1 [MB, Methyl benzoate] | 0 ^c % | 0 ^e % | 0 ^c % | 2.2 ^cd | 3.8 ^cde | 4.7 ^de | 16.6 ^bcde | 7.4 ^defg | – | 100 | 100 | 0 ^e % | 0 ^h % | 0 | % Active Day 1 ([1]; 0.0095% final concentration): 49.7 ^bc %; % Active Day 2 ([1]; 0.0095% final concentration): 27.9 ^bc %; viability reduction compared with the Tween control ([1]; 0.0095%): 32%; viability at 0.0095 % [1, 3]: 43.8%; nematocidal activity (M. incognita juveniles): demonstrated nematocidal activity |
| CCOC(=O)c1ccccc1 [EB, Ethyl benzoate] | 0 ^c % | 0 ^e % | 0 ^c % | 2.4 ^cd | 3.9 ^cde | 4.3 ^de | 22.6 ^bcd | 34.2 ^abc | 53 | – | – | 2.7 ^e % | 1.8 ^g % | 4.4 | % Active Day 1 ([1]; 0.025% final concentration): 73.9 ^a %; viability at 0.025 % [1, 3]: 52.8% |
